This passage reports IC50 results from patent US11661426B2, “Imidazole-containing inhibitors of ALK2 kinase” (BioCryst Pharmaceuticals, Inc., priority 2017, dated 2023).

Some results are limits rather than exact numbers.

The target in this test is ALK2 (Homo sapiens (Human), UniProt Q04771). The test can be described thus: ALK2 inhibition, LanthaScreen Eu Kinase Binding Assay (ThermoFisher Scientific / Life Technologies). The following applies: read-out: Measured Ki (IC50) Value for Compounds: IC50. As for the experimental part: Biochemical assays to measure the inhibitory effects of the compounds were performed by ThermoFisher Scientific (Life Technologies). ALK2 inhibition was tested using LanthaScreen™ Eu Kinase Binding Assay screening protocol.
Sequence of ALK2 (Q04771 21-509): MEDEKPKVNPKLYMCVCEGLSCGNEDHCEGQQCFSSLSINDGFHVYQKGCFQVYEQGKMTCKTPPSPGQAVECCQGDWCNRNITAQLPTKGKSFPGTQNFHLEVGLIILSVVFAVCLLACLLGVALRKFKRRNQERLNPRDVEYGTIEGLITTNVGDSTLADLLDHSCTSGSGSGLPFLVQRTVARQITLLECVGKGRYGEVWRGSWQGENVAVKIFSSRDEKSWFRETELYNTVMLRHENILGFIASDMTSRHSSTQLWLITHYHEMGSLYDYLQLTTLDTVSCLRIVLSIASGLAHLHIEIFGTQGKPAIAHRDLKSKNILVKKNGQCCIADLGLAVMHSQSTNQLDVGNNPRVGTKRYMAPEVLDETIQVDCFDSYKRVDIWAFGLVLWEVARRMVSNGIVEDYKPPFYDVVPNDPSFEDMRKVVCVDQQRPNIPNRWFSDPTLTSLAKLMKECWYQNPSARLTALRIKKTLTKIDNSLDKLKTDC
As for `COc1cc(-n2cnc(Nc3nc(N4CCC[C@H]4C(=O)NCC4CC4)nc4ccoc34)c2)cc(OC)c1OC` [Compound 248a, (S)—N-(cyclopropylmethyl)-1-(4-((1-(3,4,5-trimethoxyphenyl)-1H-imidazol-4-yl)amino)furo[3,2-d]pyrimidin-2-yl)pyrrolidine-2-carboxamide], the 50% inhibitory concentration (IC50) (in general, the midpoint of a concentration-inhibition curve) is under 100 nM.
Regarding `COc1cc(Cl)cc(-n2cnc(Nc3nc(N4CCC[C@H]4CO)c4cccn4n3)c2)c1` [Compound 249d, (S)-(1-(2-((1-(3-chloro-5-methoxyphenyl)-1H-imidazol-4-yl)amino)pyrrolo[2,1-f][1,2,4]triazin-4-yl)pyrrolidin-2-yl)methanol], the 50% inhibitory concentration (IC50) was in the range of 100 to 1000 nM.
The figure for `COc1cc(-n2cnc(Nc3nc(N4CCC[C@H]4CO)c4cccn4n3)c2)ccc1Cl` [Compound 250d, (S)-(1-(2-((1-(4-chloro-3-methoxyphenyl)-1H-imidazol-4-yl)amino)pyrrolo[2,1-f][1,2,4]triazin-4-yl)pyrrolidin-2-yl)methanol] is over 1000 nM.
In the case of `COc1cc(-n2cnc(Nc3nc(N4CC[C@@H](N(C)C)C4)nc4ccoc34)c2)cc(OC)c1OC` [Compound 251a, (R)-2-(3-(dimethylamino)pyrrolidin-1-yl)-N-(1-(3,4,5-trimethoxyphenyl)-1H-imidazol-4-yl)furo[3,2-d]pyrimidin-4-amine] it was under 100 nM; in that of `CNC(=O)[C@@H]1CCCN1c1nc(Nc2cn(-c3cc(OC)c(OC)c(OC)c3)cn2)c2occc2n1` [Compound 252a, (S)—N-methyl-1-(4-((1-(3,4,5-trimethoxyphenyl)-1H-imidazol-4-yl)amino)furo[3,2-d]pyrimidin-2-yl)pyrrolidine-2-carboxamide], under 100 nM; in that of `COc1cc(-n2cnc(Nc3nc(N4CCC[C@H]4C(N)=O)nc4cnn(C)c34)c2)cc(OC)c1OC` [Compound 253c, (S)-1-(1-methyl-7-((1-(3,4,5-trimethoxyphenyl)-1H-imidazol-4-yl)amino)-1H-pyrazolo[4,3-d]pyrimidin-5-yl)pyrrolidine-2-carboxamide], over 1000 nM.
The figure for `COc1cc(-n2cnc(Nc3nc(N4CCC[C@H]4CO)nc4c3CCN(CCC(N)=O)C4)c2)cc(OC)c1OC` [Compound 254a, (S)-3-(2-(2-(hydroxymethyl)pyrrolidin-1-yl)-4-((1-(3,4,5-trimethoxyphenyl)-1H-imidazol-4-yl)amino)-5,6-dihydropyrido[3,4-d]pyrimidin-7(8H)-yl)propanamide] is under 100 nM; for `COc1cc(-n2cnc(Nc3nc(N4CCC[C@H]4C(N)=O)nc4c3CCN(CCC(N)=O)C4)c2)cc(OC)c1OC` [Compound 255a, (S)-1-(7-(3-amino-3-oxopropyl)-4-((1-(3,4,5-trimethoxyphenyl)-1H-imidazol-4-yl)amino)-5,6,7,8-tetrahydropyrido[3,4-d]pyrimidin-2-yl)pyrrolidine-2-carboxamide] it is under 100 nM.
For `CCOc1ccc(-n2cnc(Nc3nc(N4CCC[C@H]4CO)c4cccn4n3)c2)cc1OCC` [Compound 256d, (S)-(1-(2-((1-(3,4-diethoxyphenyl)-1H-imidazol-4-yl)amino)pyrrolo[2,1-f][1,2,4]triazin-4-yl)pyrrolidin-2-yl)methanol], the 50% inhibitory concentration (IC50) is over 1000 nM.
On to `COc1cc(C)cc(-n2cnc(Nc3nc(N4CCC[C@H]4CO)c4cccn4n3)c2)c1` [Compound 257d, (S)-(1-(2-((1-(3-methoxy-5-methylphenyl)-1H-imidazol-4-yl)amino)pyrrolo[2,1-f][1,2,4]triazin-4-yl)pyrrolidin-2-yl)methanol], for which the IC50 is 100 to 1000 nM.
For `COc1cc(-n2cnc(Nc3nc(N4CCC[C@H]4CO)c4cccn4n3)c2)ccc1C#N` [Compound 258d, (S)-4-(4-((4-(2-(hydroxymethyl)pyrrolidin-1-yl)pyrrolo[2,1-f][1,2,4]triazin-2-yl)amino)-1H-imidazol-1-yl)-2-methoxybenzonitrile], the IC50 is over 1000 nM.
